Measured values taken from patent publication US20080063643A1, “Peptide Derived From Hepatitis C Virus” (priority 2003, published 2008).

Test system: peptide-specific IgG in the serum
Assay: ELISA of peptide-specific IgG in sera of HCV patients and healthy donors (Example 1)
Assay type: binding, human
Conditions: ELISA, cut-off value 1.83; for Healthy donors (n = 10) Positive n: number of 10 healthy donors with serum IgG reactive to the peptide; for HCV patients (n = 12) Positive n: number of 12 HCV patients with serum IgG reactive to the peptide; for Healthy donors (n = 10) Positive %: share of 10 healthy donors with serum IgG reactive to the peptide; for HCV patients (n = 12) Positive %: share of 12 HCV patients with serum IgG reactive to the peptide
Experimental: Synthetic peptides having an HLA-A2-binding motif or an HLA-A24-binding motif from a conserved region of HCV genotype 1b protein were used in this study (Table 1). A peptide derived from HIV having an HLA-A2-binding motif was used as a negative control. All of these peptides were purchased from a commercially supplier. The purity was analyzed by reverse-phase high-pressure liquid chromatography and found to be 90% or higher.
The level of the peptide-specific IgG in the serum was measured by ELISA. First, each peptide was dissolved in dimethyl sulfoxide (DMSO) and stored at −80° C. The peptide was diluted with 0.1 M sodium carbonate/sodium bicarbonate solution containing disuccinimidyl suberate (DSS) as a crosslinker. An ELISA plate was coated with 20 μg/well of peptide at 4° C. overnight. The wells were washed 3 times with 0.05% Tween 20/PBS (PBST), and the plate was blocked with Block Ace (registered trademark) and left overnight at 4° C. Plasma or serum samples were diluted in 1:100, 1:200 and 1:400 with 0.05% Tween 20/Block Ace, and 100 μl of each of the samples was added to each well. After the samples were incubated at 37° C. for 2 hours, the plate was washed 9 times with PBST, 100 μl of a 1:1000 diluted rabbit anti-human IgG (γ-chain specific) was added to each well, and incubated at 37° C. for 2 hours. The plate was washed 9 times with PBST, and 100 μl of 1:100 diluted mouse anti-rabbit IgG conjugated to a horseradish peroxidase-dextran polymer was added to each well, and then the plate was incubated at room temperature for 40 minutes. After the plate was washed, 100 μl of a tetramethylbenzidine substrate solution was added to each well. The reaction was stopped by the addition of 2.0 M phosphoric acid. The cutoff value was calculated as the mean±3 SD of the optical density values of the control obtained from the healthy donors.
The level of IgG that reacts with each of the 62 types of peptides was measured in the sera from 12 patients infected with HCV and 10 healthy donors (HDs) (Table 1).

| Substance | Healthy donors (n = 10) Positive n | HCV patients (n = 12) Positive n | Healthy donors (n = 10) Positive % [%] | HCV patients (n = 12) Positive % [%] |
| --- | --- | --- | --- | --- |
| 3 (RYAPACKPL; Hepatitis C Virus) [Peptide 3] | 1 | 12 | 10 | 100 |
| 5 (HYAPRPCGI; Hepatitis C Virus) [Peptide 5] | 0 | 0 | 0 | 0 |
| 6 (HYPCTVNFTI; Hepatitis C Virus) [Peptide 6] | 0 | 0 | 0 | 0 |
| 8 (SFAIKWEYVL; Hepatitis C Virus) [Peptide 8] | 0 | 0 | 0 | 0 |
| 9 (EYVLLLFLL; Hepatitis C Virus) [Peptide 9] | 0 | 0 | 0 | 0 |
| 10 (AYALYGVWPL; Hepatitis C Virus) [Peptide 10] | 0 | 1 | 0 | 8 |
| 11 (AYMSKAHGI; Hepatitis C Virus) [Peptide 11] | 0 | 6 | 0 | 50 |
| 12 (HYAPRPCGI; Hepatitis C Virus) [Peptide 12] | 0 | 9 | 0 | 75 |
| 13 (VYEAADMIM; Hepatitis C Virus) [Peptide 13] | 0 | 6 | 0 | 50 |
| 15 (LFLARLIWWL; Hepatitis C Virus) [Peptide 15] | 0 | 0 | 0 | 0 |
| 17 (QFKQKAIGL; Hepatitis C Virus) [Peptide 17] | 0 | 3 | 0 | 25 |
| 19 (HYVQMALMKL; Hepatitis C Virus) [Peptide 19] | 0 | 1 | 0 | 8 |
| 20 (TYVYDHLTPL; Hepatitis C Virus) [Peptide 20] | 0 | 0 | 0 | 0 |
| 21 (HYVQMALMKL; Hepatitis C Virus) [Peptide 21] | 0 | 5 | 0 | 42 |
| 22 (TYVYDHLTPL; Hepatitis C Virus) [Peptide 22] | 0 | 7 | 0 | 58 |
| 23 (GYGAGVAGAL; Hepatitis C Virus) [Peptide 23] | 0 | 2 | 0 | 17 |
| 24 (AYAAQGYKVL; Hepatitis C Virus) [Peptide 24] | 0 | 2 | 0 | 17 |
| 25 (VYHGAGSKTL; Hepatitis C Virus) [Peptide 25] | 0 | 6 | 0 | 50 |
| 26 (AYALYGVWPL; Hepatitis C Virus) [Peptide 26] | 0 | 2 | 0 | 17 |
| 27 (HYPCTVNFTI; Hepatitis C Virus) [Peptide 27] | 0 | 4 | 0 | 33 |

| Substance | Healthy donors (n = 10) Positive n | HCV patients (n = 12) Positive n | Healthy donors (n = 10) Positive % [%] | HCV patients (n = 12) Positive % [%] |
| --- | --- | --- | --- | --- |
| 28 (YYRGLDVSVI; Hepatitis C Virus) [Peptide 28] | 0 | 2 | 0 | 17 |
| 29 (TFLVGLNQYL; Hepatitis C Virus) [Peptide 29] | 0 | 2 | 0 | 17 |
| 30 (VFVGLILLTL; Hepatitis C Virus) [Peptide 30] | 0 | 4 | 0 | 33 |
| 32 (IFLLALLSCL; Hepatitis C Virus) [Peptide 32] | 0 | 7 | 0 | 58 |
| 33 (NFISGIQYL; Hepatitis C Virus) [Peptide 33] | 0 | 0 | 0 | 0 |
| 35 (AFTASITSPL; Hepatitis C Virus) [Peptide 35] | 0 | 0 | 0 | 0 |
| 36 (GYGAGVAGAL; Hepatitis C Virus) [Peptide 36] | 0 | 1 | 0 | 8 |
| 37 (DFKTWLQSKL; Hepatitis C Virus) [Peptide 37] | 0 | 1 | 0 | 8 |
| 38 (SFSIFLLALL; Hepatitis C Virus) [Peptide 38] | 0 | 7 | 0 | 58 |
| 40 (YLLPRRGPRL; Hepatitis C Virus) [Peptide 40] | 0 | 12 | 0 | 100 |
| 41 (SYTWTGALI; Hepatitis C Virus) [Peptide 41] | 0 | 0 | 0 | 0 |
| 42 (HYRDVLKEM; Hepatitis C Virus) [Peptide 42] | 0 | 1 | 0 | 8 |
| 43 (ILHTPGCV; Hepatitis C Virus) [Peptide 43] | 0 | 3 | 0 | 25 |
| 44 (WFMWCLLLL; Hepatitis C Virus) [Peptide 44] | 0 | 0 | 0 | 0 |
| 45 (SLLAPGAKQNV; Hepatitis C Virus) [Peptide 45] | 3 | 0 | 30 | 0 |
| 47 (LLCPAGHAV; Hepatitis C Virus) [Peptide 47] | 2 | 1 | 20 | 8 |
| 52 (ILAGYGAGV; Hepatitis C Virus) [Peptide 52] | 1 | 0 | 10 | 0 |
| 55 (GLQDCTMLV; Hepatitis C Virus) [Peptide 55] | 1 | 2 | 10 | 17 |
| 56 (ALAHGVRAL; Hepatitis C Virus) [Peptide 56] | 1 | 0 | 10 | 0 |
